Experimental data: patent US20240415834A1, “LURBINECTEDIN AND ATEZOLIZUMAB COMBINATIONS” (priority 2021, published 2024)
Read-outs that look alike come from different tables or passages of the source.

Tests used:
in vivo = conditions: rodent, iv
[1] = test system: human-derived tumour xenografts; experiment: Tumour susceptibility in xenografts of human-derived tumour types; format: in vivo, athymic mice; conditions: single bolus i.v. at rodent MTD 0.3 mg/kg
[2] = Toxicity studies: HR and ECGs of dogs after single or repeated administration; format: in vivo; conditions: doses up to 0.05 mg/kg (1 mg/m^2)
[3] = dog, in vivo
BT-474 = experiment: MTT short-term viability assay, 72 hours exposure; format: cell-based; conditions: Homo sapiens, Breast, read-out: IG50 (the source's name)
Protocol: (§1) The antineoplastic in vitro activity of lurbinectedin was evaluated in a panel of solid tumour cell lines (some of which are shown in Table 1), which were exposed to a range of lurbinectedin concentrations for 72 hours and then assayed for viability by a MTT short-term assay.

LoVo = experiment: MTT short-term viability assay, 72 hours exposure; format: cell-based; conditions: Homo sapiens, Colon, read-out: IG50 (the source's name)
Protocol: as §1

MDA-MB-231 = experiment: MTT short-term viability assay, 72 hours exposure; format: cell-based; conditions: Homo sapiens, Breast, read-out: IG50 (the source's name)
Protocol: as §1

HT-29 = experiment: MTT short-term viability assay, 72 hours exposure; format: cell-based; conditions: Homo sapiens, Colon, read-out: IG50 (the source's name)
Protocol: as §1

IGROV-1 = experiment: MTT short-term viability assay, 72 hours exposure; format: cell-based; conditions: Homo sapiens, Ovarian, read-out: IG50 (the source's name)
Protocol: as §1

MiaPaca-2 = experiment: MTT short-term viability assay, 72 hours exposure; format: cell-based; conditions: Homo sapiens, MIA PaCa-2, Pancreas, read-out: IG50 (the source's name)
Protocol: as §1

NCl-H460 = experiment: MTT short-term viability assay, 72 hours exposure; format: cell-based; conditions: Lung, read-out: IG50 (the source's name)
Protocol: as §1

PANC-1 = experiment: MTT short-term viability assay, 72 hours exposure; format: cell-based; conditions: Homo sapiens, Pancreas, read-out: IG50 (the source's name)
Protocol: as §1

NCl-H23 = experiment: MTT short-term viability assay, 72 hours exposure; format: cell-based; conditions: Lung, read-out: IG50 (the source's name)
Protocol: as §1

A2780 = experiment: MTT short-term viability assay, 72 hours exposure; format: cell-based; conditions: Homo sapiens, Ovarian, read-out: IG50 (the source's name)
Protocol: as §1

HCT 116 = experiment: MTT short-term viability assay, 72 hours exposure; format: cell-based; conditions: Homo sapiens, Colon, read-out: IG50 (the source's name)
Protocol: as §1

MCF-7 = experiment: MTT short-term viability assay, 72 hours exposure; format: cell-based; conditions: Homo sapiens, MCF7, Breast, read-out: IG50 (the source's name)
Protocol: as §1

A-549 = experiment: MTT short-term viability assay, 72 hours exposure; format: cell-based; conditions: Homo sapiens, A549, Lung, read-out: IG50 (the source's name)
Protocol: as §1

[4] = rat, in vivo
CYP isoforms = experiment: In vitro metabolism studies with human microsomes; format: in vitro ADME; conditions: followed by CYP2E1, CYP2D6 and CYP2C9
Excerpt: The estimated contribution of the other CYP isoenzymes to the PM01183 metabolism is considered to be negligible. Therefore, concomitant drugs which induce or inhibit any of these cytochromes, especially CYP3A4, should be carefully monitored or avoided, whenever is possible.

[5] = test system: patients with advanced and refractory solid tumours; set-up: species or system human; conditions: in vivo
Protocol: The completed PM1183-A-001-08 phase I trial evaluated i.v. lurbinectedin in human patients for the first time, when infused over one hour (h) every three weeks (q3 wk) in 31 patients with advanced and refractory solid tumours. Among these, 15 (48.4%) patients were treated at the defined recommended dose (RD). The RD for phase II studies was defined at a PM01183 dose of 4.0 mg/m^2 q3 wk-equivalent to a 7.0 mg flat dose (FD) q3 wk. […] No signs of cumulative toxicity were observed.

[6] = test system: broad selection of tumour-derived cell lines; experiment: In vitro cytotoxic effects against tumour-derived cell lines; format: cell-based; conditions: read-out: median IC50
A2780 ovary xenograft = experiment: In vivo antitumour activity in xenografts; set-up: species or system athymic mice; conditions: Q7d × 3, 0.18 mg/kg/day (0.54 mg/m^2/day), optimal day D-17
[7] = test system: UM-UC-3 bladder xenograft; experiment: In vivo antitumour activity in xenografts; set-up: species or system athymic mice; conditions: Bladder UM-UC-3; Qd × 5 × 2; 0.06 mg/kg/day (0.18 mg/m^2/day); optimal day D-23
[8] = test system: Capan-1 pancreas xenograft; experiment: In vivo antitumour activity in xenografts; set-up: species or system athymic mice; conditions: Pancreas Capan-1; Q7d × 3; 0.18 mg/kg/day (0.54 mg/m^2/day); optimal day D-61
LXFL 529 lung xenograft = experiment: In vivo antitumour activity in xenografts; set-up: species or system athymic mice; conditions: Lung LXFL 529; Q7d × 3; 0.18 mg/kg/day (0.54 mg/m^2/day); optimal day D-28
[9] = Cardiovascular parameters (ABP, HR, lead II ECG) after single bolus injection in dogs; format: in vivo; conditions: six hours, doses up to 0.01 mg/kg (0.2 mg/m^2)
[10] = test system: patients with metastatic SCLC; conditions: cited from earlier work
MX-1 breast xenograft = experiment: In vivo antitumour activity in xenografts; set-up: species or system athymic mice; conditions: Breast MX-1; Q7d × 3; 0.18 mg/kg/day (0.54 mg/m^2/day); optimal day D-21
[11] = test system: MDA-MB-231 breast xenograft; experiment: In vivo antitumour activity in xenografts; set-up: species or system athymic mice; conditions: Breast MDA-MB-231; Q7d × 3; 0.18 mg/kg/day (0.54 mg/m^2/day); optimal day D-34
PC-3 prostate xenograft = experiment: In vivo antitumour activity in xenografts; set-up: species or system athymic mice; conditions: Prostate PC-3; Q7d × 3; 0.18 mg/kg/day (0.54 mg/m^2/day); optimal day D-27
[12] = PM1183-A-008-13 phase I study, interaction with aprepitant; format: in vivo, human; conditions: in the presence of aprepitant (CYP3A4 inhibitor), patients
Excerpt: PM01183 clearance was reduced by 50%, approximately, in the presence of aprepitant. Although all patients eventually recovered, the use of aprepitant is currently forbidden in all PM01183 studies.

[13] = Pooled logistic regression analysis of phase II data, review of recommended dose; format: in vivo, human; conditions: q3 wk, BSA-based dosing, to limit severe myelosuppression
Protocol: Owing to these findings, all actively recruiting and planned studies now use BSA-based dosing to limit severe myelosuppression. The original RD of 4.0 mg/m^2 q3 wk has been reviewed and reduced to 3.2 mg/m^2 q3 wk for the same reason.

patients with ES-SCLC = conditions: IMpower133; cited from earlier work

COc1ccc2[nH]c3c(c2c1)CCN[C@]31CS[C@@H]2c3c(OC(C)=O)c(C)c4c(c3[C@H](COC1=O)N1[C@@H]2[C@H]2c3c(cc(C)c(OC)c3O)C[C@@H]([C@@H]1O)N2C)OCO4 [PM01183, lurbinectedin]
MTD (in vivo): 0.3 mg/kg | antitumour activity against bladder, pancreas and prostate xenografts [1]: more moderate antitumour profile | antitumour activity against breast, lung and ovarian xenografts ([1]; different time points): statistically significant antitumour activity (p<0.05) | electrophysiological alterations in HR and ECGs [2]: no electrophysiological alterations | main target organs of toxicity [3]: bone marrow and the liver | IC50 (BT-474): 1.3 nM | IC50 (LoVo): 2 nM | IC50 (MDA-MB-231): 3.5 nM | IC50 (HT-29): 2.4 nM | IC50 (IGROV-1): 9.8 nM | IC50 (MiaPaca-2): 1.1 nM | IC50 (NCl-H460): 1.6 nM | IC50 (PANC-1): 2.9 nM | IC50 (NCl-H23): 0.54 nM | IC50 (A2780): 1.6 nM | IC50 (HCT 116): 65 nM | IC50 (MCF-7): 1.7 nM | IC50 (A-549): 1.3 nM | main target organs of toxicity [4]: bone marrow and the liver | major CYP isoform involved in the metabolism (CYP isoforms): CYP3A4 | dose-limiting toxicity (DLT) at the RD ([5]; human): grade 4 thrombocytopenia | inter-patient variability in the area under the curve [AUC] ([5]; human): > 50.0% | recommended dose, equivalent flat dose (FD) ([5]; human): 7.0 mg | recommended dose (RD) for phase II studies ([5]; human, iv): 4.0 mg/m^2 | PK dose linearity [5]: linearity across all explored doses | tolerability at the RD [5]: generally well tolerated | IC50 [6]: ~0.1 nM | T/C % (A2780 ovary xenograft): 34% | T/C % [7]: 58% | T/C % [8]: 61% | T/C % (LXFL 529 lung xenograft): 5% | effects on heart, ABP, lead II ECG variables (PR, QT, QTcF, QTcV, QRS), ECG gross morphology or rhythm [9]: no effects | median response duration ([10]; independent review committee, 95% CI 4.9, 6.4): 5.1 months | ORR ([10]; independent review committee, 95% CI 22%, 40%): 30% | ORR ([10]; investigator assessment RECIST 1.1, 105 patients, 3.2 mg/m^2 i.v. every 21 days, 95% CI 26%, 45%): 35% | median response duration ([10]; investigator assessment, 95% CI 4.1, 6.4): 5.3 months | T/C % (MX-1 breast xenograft): 0% | T/C % [11]: 40% | T/C % (PC-3 prostate xenograft): 65% | clearance reduction [12]: ~50% | recommended dose, reviewed and reduced [13]: 3.2 mg/m^2

atezolizumab: humanized IgG1 monoclonal antibody that targets human PD-L1
most common adverse reaction reported in ≥20% of patients (patients with ES-SCLC): fatigue/asthenia, nausea, alopecia, constipation and decreased appetite
